# Results reported in the SangsterLogP compilation.
# Test: method code SF-AS, from Novello, F.; Sprague, M. (1967). Structure-activity relations among the thiazole diuretics. Ind. Chim. Belge, 32(Spec.No.), 222-225.
# Conditions: pH 6.4
row,SMILES,logD
1,NS(=O)(=O)c1cc2c(cc1Cl)NC(CSCc1ccccc1)NS2(=O)=O (stereo not drawn),1.11

# Same assay, conditions: pH 6.5
row,SMILES,logD
1,NS(=O)(=O)c1ccc2c(c1)S(=O)(=O)NC=N2,-0.62
2,NS(=O)(=O)c1cc2c(cc1Cl)NC(Cc1ccccc1)NS2(=O)=O (stereo not drawn),0.93
3,NS(=O)(=O)c1cc2c(cc1Cl)NC1(CCCCC1)NS2(=O)=O,1
4,CCCCCC1=NS(=O)(=O)c2cc(S(N)(=O)=O)c(Cl)cc2N1,2.01
5,NS(=O)(=O)c1cc2c(cc1C(F)(F)C(F)(F)F)N=CNS2(=O)=O,1.05
6,NS(=O)(=O)c1cc2c(cc1Cl)NC(C1CC3C=CC1C3)NS2(=O)=O (stereo not drawn),1.8
7,NS(=O)(=O)c1cc2c(cc1[N+](=O)[O-])N=CNS2(=O)=O,0.08
8,NS(=O)(=O)c1ccc2c(c1)S(=O)(=O)NC(Cc1ccccc1)N2 (stereo not drawn),1.03
9,NS(=O)(=O)c1cc2c(cc1Cl)NC(CCl)NS2(=O)=O (stereo not drawn),0.11
10,CC1(C)Nc2cc(Cl)c(S(N)(=O)=O)cc2S(=O)(=O)N1,0.15
11,NS(=O)(=O)c1cc2c(cc1Cl)NC(C(F)(F)F)NS2(=O)=O (stereo not drawn),0.49
12,NS(=O)(=O)c1cc2c(cc1F)N=CNS2(=O)=O,-0.29
13,CC1CCC2(CC1)Nc1ccc(S(N)(=O)=O)cc1S(=O)(=O)N2 (stereo not drawn),1.56
14,NS(=O)(=O)c1cc2c(cc1Cl)NC(CC1CCCC1)NS2(=O)=O (stereo not drawn),1.27
15,CCCC1=Nc2cc(Cl)c(S(N)(=O)=O)cc2S(=O)(=O)N1,1.15
16,NS(=O)(=O)c1cc2c(cc1Cl)NC(C(Cl)(Cl)Cl)NS2(=O)=O (stereo not drawn),0.82

row,SMILES,logD
1,CC(C)(C)C1Nc2cc(Cl)c(S(N)(=O)=O)cc2S(=O)(=O)N1 (stereo not drawn),0.36
2,NS(=O)(=O)c1cc2c(cc1Cl)N=C(c1ccccc1)NS2(=O)=O,1.1
3,NS(=O)(=O)c1cc2c(cc1Br)N=CNS2(=O)=O,0
4,CC1Nc2cc(Cl)c(S(N)(=O)=O)cc2S(=O)(=O)N1 (stereo not drawn),0.08
5,NS(=O)(=O)c1cc2c(cc1C(F)(F)F)N=CNS2(=O)=O,0.32
6,NS(=O)(=O)c1cc2c(cc1Cl)N=C(Cc1ccccc1)NS2(=O)=O,1.56
7,NS(=O)(=O)c1cc2c(cc1[N+](=O)[O-])NCNS2(=O)=O,0.2
8,NS(=O)(=O)c1ccc2c(c1)S(=O)(=O)NC(C(Cl)Cl)N2 (stereo not drawn),0.46
9,NS(=O)(=O)c1ccc2c(c1)S(=O)(=O)NC(CC1CCCC1)N2 (stereo not drawn),1.24
10,NS(=O)(=O)c1cc2c(cc1Br)NCNS2(=O)=O,0.08
11,NS(=O)(=O)c1ccc2c(c1)S(=O)(=O)NCN2,-0.52
12,Cc1cc2c(cc1S(N)(=O)=O)S(=O)(=O)NCN2,-0.22
13,CCC1Nc2cc(Cl)c(S(N)(=O)=O)cc2S(=O)(=O)N1 (stereo not drawn),0.3
14,CC1CCC2(CC1)Nc1cc(Cl)c(S(N)(=O)=O)cc1S(=O)(=O)N2 (stereo not drawn),0.85
15,Cc1cc2c(cc1S(N)(=O)=O)S(=O)(=O)N=CN2,-0.32
16,CC1=Nc2cc(Cl)c(S(N)(=O)=O)cc2S(=O)(=O)N1,0.03
